From patent publication US12310975B2, “Modulators of BCL6 proteolysis and associated methods of use” (Arvinas Operations, Inc., priority 2019, dated 2025)

Legend:
[1] = biological target: T1, BCL6 (Homo sapiens (Human), UniProt P41182); assay: BCL6 TR-FRET assay (BCL6-Avitag-Biotin / BCoR-Cy5 peptide); assay type: binding
How it was run: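 TR-FRET displacement assay: biotinylated His-SUMO-BCL6-Avitag (2 nM) pre-incubated 30 min at room temperature with compound (12-point 3-fold titration), then BCoR-Cy5 peptide (100 nM) and Eu-streptavidin (2 nM) added. Buffer: 50 mM HEPES pH 7.5, 125 mM NaCl, 0.01% Triton X, glutathione or DTT, 0.03% BSA. Read after 2 h.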

[2] = biological target: T1, BCL6; assay: Immunofluorescence high content imaging of BCL6 degradation in T47D cells; assay type: cell-based; conditions: for Dmax: T47D; for DC50: class symbols A-D, read-out: EC50 (nM)*
How it was run: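 Seed T47D in RPMI1640-10% FBS to reach ~70-90% confluence at endpoint; add degrader next day (11-point 3-fold series, top 0.1 or 1 μM final) for 3 days. Then fix, permeabilize, stain BCL6 with nuclear Hoechst, and image.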

[3] = class symbols A-D, read-out: IC50 (nM)***

Compound | IC50 ([1]; read-out: IC50) [nM] | Dmax [2] [%] | IC50 [1, 3] [nM] | Dmax ([2]; maximum, class symbols A-C) [%] | DC50 [2] [nM] | EC50 [1] [nM] | IC50 [2] [nM]
CNC(=O)[C@H](C)Oc1cc2cc(Nc3nc(N4CCC(CN5CCN(c6ccc7c(c6)C(=O)N([C@@H]6CCC(=O)NC6=O)C7=O)CC5)CC4)ncc3Cl)ccc2n(C)c1=O [compound 213, (S)-2-((6-((5-chloro-2-(4-((4-(2-((R)-2,6-dioxopiperidin-3-yl)-1,3-dioxoisoindolin-5-yl)piperazin-1-yl)methyl)piperidin-1-yl)pyrimidin-4-yl)amino)-1-methyl-2-oxo-1,2-dihydroquinolin-3-yl)oxy)-N-methylpropanamide] | – | – | – | – | – | > 100 | ≥ 100
CNC(=O)/C=C/c1cc2cc(Nc3nc(N4CCC(CN5CCN(c6ccc7c(c6)C(=O)N(C6CCC(=O)NC6=O)C7=O)CC5)CC4)ncc3Cl)ccc2n(C)c1=O (stereo not drawn) [compound 174, (E)-3-(6-((5-chloro-2-(4-((4-(2-(2,6-dioxopiperidin-3-yl)-1,3-dioxoisoindolin-5-yl)piperazin-1-yl)methyl)piperidin-1-yl)pyrimidin-4-yl)amino)-1-methyl-2-oxo-1,2-dihydroquinolin-3-yl)-N-methylacrylamide] | – | – | 10 to 50 | 50 to 70 | – | – | –
CNC(=O)COc1cc2cc(Nc3nc(N4CCC[C@H](COc5ccc6c(c5)C(=O)N(C5CCC(=O)NC5=O)C6=O)C4)ncc3Cl)ccc2n(C)c1=O (stereo partly drawn) [compound 237, 2-((6-((5-chloro-2-((3S)-3-(((2-(2,6-dioxopiperidin-3-yl)-1,3-dioxoisoindolin-5-yl)oxy)methyl)piperidin-1-yl)pyrimidin-4-yl)amino)-1-methyl-2-oxo-1,2-dihydroquinolin-3-yl)oxy)-N-methylacetamide] | – | < 50 | – | – | – | 10 to 50 | 10 to 50
CC(=O)COc1cc2cc(Nc3nc(N4CCN(CCCN5CCN(c6ccc7c(c6)CN(C6CCC(=O)NC6=O)C7=O)CC5)CC4)ncc3Cl)ccc2n(C)c1=O (stereo not drawn) [compound 137, 3-(5-(4-(3-(4-(5-chloro-4-((1-methyl-2-oxo-3-(2-oxopropoxy)-1,2-dihydroquinolin-6-yl)amino)pyrimidin-2-yl)piperazin-1-yl)propyl)piperazin-1-yl)-1-oxoisoindolin-2-yl)piperidine-2,6-dione] | – | – | < 10 | < 50 | 10 to 50 | – | –
CNC(=O)COc1cc2cc(Nc3nc(N4CCN(CCCN5CCN(c6ccc7c(c6)C(=O)N(C6CCC(=O)NC6=O)C7=O)CC5)CC4)ncc3Cl)ccc2n(C)c1=O (stereo not drawn) [compound 230, 2-((6-((5-chloro-2-(4-(3-(4-(2-(2,6-dioxopiperidin-3-yl)-1,3-dioxoisoindolin-5-yl)piperazin-1-yl)propyl)piperazin-1-yl)pyrimidin-4-yl)amino)-1-methyl-2-oxo-1,2-dihydroquinolin-3-yl)oxy)-N-methylacetamide] | – | < 50 | – | – | – | < 10 | 10 to 50
CC(=O)COc1cc2cc(Nc3nc(N4CCC(CN5CCC(Oc6ccc7c(c6)C(=O)N(C6CCC(=O)NC6=O)C7=O)CC5)C4)ncc3Cl)ccc2n(C)c1=O (stereo not drawn) [compound 154, 5-((1-((1-(5-chloro-4-((1-methyl-2-oxo-3-(2-oxopropoxy)-1,2-dihydroquinolin-6-yl)amino)pyrimidin-2-yl)pyrrolidin-3-yl)methyl)piperidin-4-yl)oxy)-2-(2,6-dioxopiperidin-3-yl)isoindoline-1,3-dione] | – | – | 50 to 100 | < 50 | 10 to 50 | – | –
CC(=O)COc1cc2cc(Nc3nc(N4CCC(N5CCC(N(C)CCOc6ccc7c(c6)CN(C6CCC(=O)NC6=O)C7=O)C5)CC4)ncc3Cl)ccc2n(C)c1=O (stereo not drawn) [compound 157, 3-(5-(2-((1-(1-(5-chloro-4-((1-methyl-2-oxo-3-(2-oxopropoxy)-1,2-dihydroquinolin-6-yl)amino)pyrimidin-2-yl)piperidin-4-yl)pyrrolidin-3-yl) (methyl)amino)ethoxy)-1-oxoisoindolin-2-yl)piperidine-2,6-dione] | – | – | < 10 | 50 to 70 | 10 to 50 | – | –

Now from value to compound:

IC50 ([1]; read-out: IC50) [nM] | Dmax [2] [%] | IC50 [1, 3] [nM] | Dmax ([2]; maximum, class symbols A-C) [%] | DC50 [2] [nM] | EC50 [1] [nM] | IC50 [2] [nM] | Compound
< 10 | 50 to 70 | – | – | – | – | – | CNC(=O)COc1cc2cc(Nc3nc(N4CCN(CC5CCN(c6cccc7c6C(=O)N(C6CCC(=O)NC6=O)C7=O)CC5)CC4)ncc3Cl)ccc2n(CC2COC2)c1=O (stereo not drawn) [compound 485, 2-{[6-({5-chloro-2-[4-({1-[2-(2,6-dioxopiperidin-3-yl)-1,3-dioxo-2,3-dihydro-1H-isoindol-4-yl]piperidin-4-yl}methyl)piperazin-1-yl]pyrimidin-4-yl}amino)-1-[(oxetan-3-yl)methyl]-2-oxo-1,2-dihydroquinolin-3-yl]oxy}-N-methylacetamide]
– | – | 10 to 50 | 50 to 70 | 10 to 50 | – | – | CNC(=O)COc1cc2cc(Nc3nc(N4CCC(CN5CCN(c6ccc7c(c6)C(=O)N(C6CCC(=O)NC6=O)C7=O)CC5)CC4)ncc3Cl)ccc2n(C)c1=O (stereo not drawn) [compound 104, 2-((6-((5-chloro-2-(4-((4-(2-(2,6-dioxopiperidin-3-yl)-1,3-dioxoisoindolin-5-yl)piperazin-1-yl)methyl)piperidin-1-yl)pyrimidin-4-yl)amino)-1-methyl-2-oxo-1,2-dihydroquinolin-3-yl)oxy)-N-methylacetamide]
– | < 50 | – | – | – | 10 to 50 | < 10 | CNC(=O)COc1cc2cc(Nc3nc(N4CCN(CC5CCN(c6cccc(F)c6C(=O)NC6CCC(=O)NC6=O)CC5)CC4)ncc3Cl)ccc2n(C)c1=O (stereo not drawn) [compound 275, 2-[4-({4-[5-chloro-4-({1-methyl-3-[(methylcarbamoyl)methoxy]-2-oxo-1,2-dihydroquinolin-6-yl}amino)pyrimidin-2-yl]piperazin-1-yl}methyl)piperidin-1-yl]-N-(2,6-dioxopiperidin-3-yl)-6-fluorobenzamide]
< 10 | 50 to 70 | – | – | – | – | – | CNC(=O)COc1cc2cc(Nc3nc(N4CCN(CC5CCC6(CC5)CN(c5ccc7c(c5)C(=O)N(C5CCC(=O)NC5=O)C7=O)C6)CC4)ncc3Cl)ccc2n(C(C)C)c1=O (stereo not drawn) [compound 451, 2-{[6-({5-chloro-2-[4-({2-[2-(2,6-dioxopiperidin-3-yl)-1,3-dioxo-2,3-dihydro-1H-isoindol-5-yl]-2-azaspiro[3.5]nonan-7-yl}methyl)piperazin-1-yl]pyrimidin-4-yl}amino)-2-oxo-1-(propan-2-yl)-1,2-dihydroquinolin-3-yl]oxy}-N-methylacetamide]
– | – | < 10 | 50 to 70 | – | – | – | CC(=O)COc1cc2cc(Nc3nc(N4CCC(CN5CCN(c6ccc7c(c6)CN(C6CCC(=O)NC6=O)C7=O)CC5)CC4)ncc3Cl)ccc2n(C)c1=O (stereo not drawn) [compound 175, 3-(5-(4-((1-(5-chloro-4-((1-methyl-2-oxo-3-(2-oxopropoxy)-1,2-dihydroquinolin-6-yl)amino)pyrimidin-2-yl)piperidin-4-yl)methyl)piperazin-1-yl)-1-oxoisoindolin-2-yl)piperidine-2,6-dione]
– | 50 to 70 | – | – | – | > 100 | 50 to 100 | CCNC(=O)COc1cc2cc(Nc3nc(N4CCC(CN5CCN(c6ccc7c(c6)C(=O)N(C6CCC(=O)NC6=O)C7=O)CC5)CC4)ncc3Cl)ccc2n(C)c1=O (stereo not drawn) [compound 198, 2-((6-((5-chloro-2-(4-((4-(2-(2,6-dioxopiperidin-3-yl)-1,3-dioxoisoindolin-5-yl)piperazin-1-yl)methyl)piperidin-1-yl)pyrimidin-4-yl)amino)-1-methyl-2-oxo-1,2-dihydroquinolin-3-yl)oxy)-N-ethylacetamide]
10 to 50 | ≥ 70 | – | – | – | – | – | CNC(=O)COc1cc2cc(Nc3nc(N4CCC5(CC4)CC(OC4CCN(c6cccc(C(=O)NC7CCC(=O)NC7=O)c6F)CC4)C5)ncc3Cl)ccc2n(C(C)C)c1=O (stereo not drawn) [compound 453, 3-[4-({7-[5-chloro-4-({3-[(methylcarbamoyl)methoxy]-2-oxo-1-(propan-2-yl)-1,2-dihydroquinolin-6-yl}amino)pyrimidin-2-yl]-7-azaspiro[3.5]nonan-2-yl}oxy)piperidin-1-yl]-N-(2,6-dioxopiperidin-3-yl)-2-fluorobenzamide]
< 10 | 50 to 70 | – | – | – | – | – | CNC(=O)COc1cc2cc(Nc3nc(N4CCC(CN5CCC6(C5)CN(c5ccc7c(c5)C(=O)N(C5CCC(=O)NC5=O)C7=O)C6)CC4)ncc3Cl)ccc2n(C(C)C)c1=O (stereo not drawn) [compound 510, 2-{[6-({5-chloro-2-[4-({2-[2-(2,6-dioxopiperidin-3-yl)-1,3-dioxo-2,3-dihydro-1H-isoindol-5-yl]-2,6-diazaspiro[3.4]octan-6-yl}methyl)piperidin-1-yl]pyrimidin-4-yl}amino)-2-oxo-1-(propan-2-yl)-1,2-dihydroquinolin-3-yl]oxy}-N-methylacetamide]
< 10 | 50 to 70 | – | – | – | – | – | CNC(=O)COc1cc2cc(Nc3nc(N4CCN(CC5CCN(c6cc(OC)cc(C(=O)NC7CCC(=O)NC7=O)c6F)CC5)CC4)ncc3Cl)ccc2n(C(C)C)c1=O (stereo not drawn) [compound 473, 3-[4-({4-[5-chloro-4-({3-[(methylcarbamoyl)methoxy]-2-oxo-1-(propan-2-yl)-1,2-dihydroquinolin-6-yl}amino)pyrimidin-2-yl]piperazin-1-yl}methyl)piperidin-1-yl]-N-(2,6-dioxopiperidin-3-yl)-2-fluoro-5-methoxybenzamide]
< 10 | ≥ 70 | – | – | – | – | – | CNC(=O)COc1cc2cc(Nc3nc(N4CCC5(CC4)CN(CC4CCN(c6cccc(C(=O)NC7CCC(=O)NC7=O)c6F)CC4)C5)ncc3Cl)ccc2n(C(C)C)c1=O (stereo not drawn) [compound 450, 3-[4-({7-[5-chloro-4-({3-[(methylcarbamoyl)methoxy]-2-oxo-1-(propan-2-yl)-1,2-dihydroquinolin-6-yl}amino)pyrimidin-2-yl]-2,7-diazaspiro[3.5]nonan-2-yl}methyl)piperidin-1-yl]-N-(2,6-dioxopiperidin-3-yl)-2-fluorobenzamide]
